Data from patent publication US20230218624A1 (Urovant Sciences GmbH, priority 2017, published 2023).
Where “and” joins values, the source holds several entries; their conditions need not be identical. Identical values can stand only once.

What was measured:
patients with OAB [1] = assay: Phase 2b cardiovascular safety: orthostatic AEs, HR and BP changes; type: in vivo, human; settings: for DBP change from baseline ≥5 mm Hg, subjects / DBP change from baseline ≥10 bpm, subjects / DBP change from baseline ≥15 bpm, subjects / HR change from baseline ≥5 bpm, subjects / HR change from baseline ≥10 bpm, subjects / HR change from baseline ≥15 bpm, subjects / SBP change from baseline ≥5 mm Hg, subjects / SBP change from baseline ≥10 bpm, subjects / SBP change from baseline ≥15 bpm, subjects: 3 consecutive post-baseline visits
Description: None led to discontinuation. The overall incidence of orthostatic symptoms was low.
Small differences in the percent of subjects exceeding categorical heart rate and blood pressure thresholds for vibegron were similar to those in the tolterodine arm.

[2] = Drug interaction: effect of co-administered medication on vibegron PK; type: in vivo, human
Description: However, these interactions are not expected to be clinically significant.

QTc interval = assay: Thorough QT study, single oral doses
β3-AR = β3-AR (Homo sapiens, UniProt P13945)
patients with OAB [3] = assay: Phase 3 open-label 52-week study in OAB; type: in vivo, human; settings: 50 mg or 100 mg once daily, 52-week treatment period
Method: After eight weeks, the dose could be increased to 100 mg once daily as clinically indicated.

[4] = vibegron 100 mg single dose with multiple doses of 240 mg or 180 mg diltiazem

Chain of β3-AR (P13945 whole entry): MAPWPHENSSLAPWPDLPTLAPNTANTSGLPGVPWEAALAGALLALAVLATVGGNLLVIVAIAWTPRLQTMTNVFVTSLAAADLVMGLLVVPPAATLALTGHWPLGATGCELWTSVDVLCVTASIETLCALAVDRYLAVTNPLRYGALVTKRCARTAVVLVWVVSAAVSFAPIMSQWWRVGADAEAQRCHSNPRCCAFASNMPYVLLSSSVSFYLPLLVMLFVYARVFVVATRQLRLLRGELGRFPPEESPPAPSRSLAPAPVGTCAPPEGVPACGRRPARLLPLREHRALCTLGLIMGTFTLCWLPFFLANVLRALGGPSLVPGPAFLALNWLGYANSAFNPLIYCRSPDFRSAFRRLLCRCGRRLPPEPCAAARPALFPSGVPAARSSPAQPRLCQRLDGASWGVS

SMILES: O=C(Nc1ccc(C[C@@H]2CC[C@H]([C@H](O)c3ccccc3)N2)cc1)[C@@H]1CCc2nccc(=O)n21 [Vibegron, (6S)—N-[4-[[(2S,5R)-5-[(R)-hydroxy(phenyl)methyl]pyrrolidin-2-yl]methyl]phenyl]-4-oxo-7,8-dihydro-6H-pyrrolo[1,2-a]pyrimidine-6-carboxamide]
- SBP and DBP mean changes at Week 1 and mean maximum changes over 8 weeks, difference between placebo and vibegron (patients with OAB [1]; 50 mg and 100 mg): < 1 mm Hg
- HR mean maximum changes over 8 weeks, comparable to placebo (patients with OAB [1]; all doses): < 2 bpm
- DBP change from baseline, mean (week 1) (patients with OAB [1]; vibegron 3 mg): −0.37 mm Hg
- DBP change from baseline, mean maximum (week 1 to 8) (patients with OAB [1]; vibegron 3 mg): 5.03 mm Hg
- HR change from baseline, mean (week 1) (patients with OAB [1]; vibegron 3 mg): 0.36 bpm
- HR change from baseline, mean maximum (week 1 to 8) (patients with OAB [1]; vibegron 3 mg): 5.57 bpm
- SBP change from baseline, mean (week 1) (patients with OAB [1]; vibegron 3 mg): −0.35 mm Hg
- SBP change from baseline, mean maximum (week 1 to 8) (patients with OAB [1]; vibegron 3 mg): 7.14 mm Hg
- DBP change from baseline ≥5 mm Hg, subjects (patients with OAB [1]; vibegron 3 mg): (10.0) %
- DBP change from baseline ≥10 bpm, subjects (patients with OAB [1]; vibegron 3 mg): (2.1) %
- DBP change from baseline ≥15 bpm, subjects (patients with OAB [1]; vibegron 3 mg): (0.7) %
- HR change from baseline ≥5 bpm, subjects (patients with OAB [1]; vibegron 3 mg): (11.4) %
- HR change from baseline ≥10 bpm, subjects (patients with OAB [1]; vibegron 3 mg): (3.6) %
- HR change from baseline ≥15 bpm, subjects (patients with OAB [1]; vibegron 3 mg): (0.7) %
- SBP change from baseline ≥5 mm Hg, subjects (patients with OAB [1]; vibegron 3 mg): (15.0) %
- SBP change from baseline ≥10 bpm, subjects (patients with OAB [1]; vibegron 3 mg): (7.1) %
- SBP change from baseline ≥15 bpm, subjects (patients with OAB [1]; vibegron 3 mg): (2.9) %
- DBP change from baseline, mean (week 1) (patients with OAB [1]; vibegron 15 mg): 0.03 mm Hg
- DBP change from baseline, mean maximum (week 1 to 8) (patients with OAB [1]; vibegron 15 mg): 6.37 mm Hg
- HR change from baseline, mean (week 1) (patients with OAB [1]; vibegron 15 mg): 0.35 bpm
- HR change from baseline, mean maximum (week 1 to 8) (patients with OAB [1]; vibegron 15 mg): 6.56 bpm
- SBP change from baseline, mean (week 1) (patients with OAB [1]; vibegron 15 mg): −0.34 mm Hg
- SBP change from baseline, mean maximum (week 1 to 8) (patients with OAB [1]; vibegron 15 mg): 8.93 mm Hg
- subjects with orthostatic related AEs (patients with OAB [1]; vibegron 15 mg group): 0.3%
- DBP change from baseline ≥5 mm Hg, subjects (patients with OAB [1]; vibegron 15 mg): (11.4) %
- DBP change from baseline ≥10 bpm, subjects (patients with OAB [1]; vibegron 15 mg): (2.3) %
- DBP change from baseline ≥15 bpm, subjects (patients with OAB [1]; vibegron 15 mg): (0.8) %
- HR change from baseline ≥5 bpm, subjects (patients with OAB [1]; vibegron 15 mg): (12.9) %
- HR change from baseline ≥10 bpm, subjects (patients with OAB [1]; vibegron 15 mg): (3.0) %
- HR change from baseline ≥15 bpm, subjects (patients with OAB [1]; vibegron 15 mg): (0.8) %
- SBP change from baseline ≥5 mm Hg, subjects (patients with OAB [1]; vibegron 15 mg): (16.7) %
- SBP change from baseline ≥10 bpm, subjects (patients with OAB [1]; vibegron 15 mg): (6.8) %
- SBP change from baseline ≥15 bpm, subjects (patients with OAB [1]; vibegron 15 mg): (0.8) %
- DBP change from baseline, mean (week 1) (patients with OAB [1]; vibegron 50 mg): −0.70 mm Hg
- DBP change from baseline, mean maximum (week 1 to 8) (patients with OAB [1]; vibegron 50 mg): 4.19 mm Hg
- HR change from baseline, mean (week 1) (patients with OAB [1]; vibegron 50 mg): 0.29 bpm
- HR change from baseline, mean maximum (week 1 to 8) (patients with OAB [1]; vibegron 50 mg): 5.49 bpm
- SBP change from baseline, mean (week 1) (patients with OAB [1]; vibegron 50 mg): −0.79 mm Hg
- SBP change from baseline, mean maximum (week 1 to 8) (patients with OAB [1]; vibegron 50 mg): 7.01 mm Hg
- subjects with orthostatic related AEs (patients with OAB [1]; vibegron 50 mg+tolterodine ER/vibegron 50 mg treatment group): 0.8%
- DBP change from baseline ≥5 mm Hg, subjects (patients with OAB [1]; vibegron 50 mg): (7.6) %
- DBP change from baseline ≥10 bpm, subjects (patients with OAB [1]; vibegron 50 mg): (3.5) %
- DBP change from baseline ≥15 bpm, subjects (patients with OAB [1]; vibegron 50 mg): (0.7) %
- HR change from baseline ≥5 bpm, subjects (patients with OAB [1]; vibegron 50 mg): (8.3) %
- HR change from baseline ≥10 bpm, subjects (patients with OAB [1]; vibegron 50 mg): (2.8) %
- HR change from baseline ≥15 bpm, subjects (patients with OAB [1]; vibegron 50 mg): (0.7) %
- SBP change from baseline ≥5 mm Hg, subjects (patients with OAB [1]; vibegron 50 mg): (16.7) %
- SBP change from baseline ≥10 bpm, subjects (patients with OAB [1]; vibegron 50 mg): (9.7) %
- SBP change from baseline ≥15 bpm, subjects (patients with OAB [1]; vibegron 50 mg): (2.1) %
- DBP change from baseline, mean (week 1) (patients with OAB [1]; vibegron 100 mg): −0.69 mm Hg
- DBP change from baseline, mean maximum (week 1 to 8) (patients with OAB [1]; vibegron 100 mg): 4.80 mm Hg
- HR change from baseline, mean (week 1) (patients with OAB [1]; vibegron 100 mg): 0.35 bpm
- HR change from baseline, mean maximum (week 1 to 8) (patients with OAB [1]; vibegron 100 mg): 6.12 bpm
- SBP change from baseline, mean (week 1) (patients with OAB [1]; vibegron 100 mg): −0.77 mm Hg
- SBP change from baseline, mean maximum (week 1 to 8) (patients with OAB [1]; vibegron 100 mg): 6.51 mm Hg
- subjects with orthostatic related AEs (patients with OAB [1]; vibegron 100 mg group): 1.1%
- DBP change from baseline ≥5 mm Hg, subjects (patients with OAB [1]; vibegron 100 mg): (13.1) %
- DBP change from baseline ≥10 bpm, subjects (patients with OAB [1]; vibegron 100 mg): (3.4) %
- HR change from baseline ≥5 bpm, subjects (patients with OAB [1]; vibegron 100 mg): (11.8) %
- HR change from baseline ≥10 bpm, subjects (patients with OAB [1]; vibegron 100 mg): (3.0) %
- HR change from baseline ≥15 bpm, subjects (patients with OAB [1]; vibegron 100 mg): (0.4) %
- SBP change from baseline ≥5 mm Hg, subjects (patients with OAB [1]; vibegron 100 mg): (11.8) %
- SBP change from baseline ≥10 bpm, subjects (patients with OAB [1]; vibegron 100 mg): (4.2) %
- SBP change from baseline ≥15 bpm, subjects (patients with OAB [1]; vibegron 100 mg): (1.3) %
- effect of tolterodine ER 4 mg on the pharmacokinetics of vibegron ([2]; in vivo): no effect
- Cmax of vibegron, geometric mean ([2]; vibegron 100 mg single dose + diltiazem ER 240 mg QD): 167 ng/mL
- GM AUC0-inf increase [2, 4]: 63%
- GM Cmax increase [2, 4]: 68%
- GM t1/2 ([2]; vibegron with diltiazem): 75.4 h
- AUC, mean ± SD (QTc interval; single dose 200 mg): 2430 ± 974 ng·h/mL
- Maximum mean placebo corrected change from baseline RR interval (QTc interval; single dose 200 mg): -84.36 ms
- Maximum mean placebo corrected change from baseline diastolic BP (QTc interval; single dose 200 mg): 2.42 mmHg
- Maximum mean placebo corrected change from baseline systolic BP (QTc interval; single dose 200 mg): 2.20 mmHg
- QTcF LS mean difference from placebo (QTc interval; single dose 200 mg, 0.5 hour): 2.90 ms
- QTcF change from baseline, LS mean (QTc interval; single dose 200 mg, 0.5 hour): 1.90 ms
- QTcF change from baseline, LS mean (QTc interval; single dose 200 mg, 1 hour): 4.87 ms
- QTcF LS mean difference from placebo (QTc interval; single dose 200 mg, 1 hour (maximum)): 4.98 (3.07, 6.88) msec and 4.98 msec
- QTcF LS mean difference from placebo (QTc interval; single dose 200 mg, 2 hour): 2.14 ms
- QTcF change from baseline, LS mean (QTc interval; single dose 200 mg, 2 hour): 2.06 ms
- QTcF LS mean difference from placebo (QTc interval; single dose 200 mg, 3 hour): 0.40 ms
- QTcF change from baseline, LS mean (QTc interval; single dose 200 mg, 3 hour): 1.14 ms
- QTcF LS mean difference from placebo (QTc interval; single dose 200 mg, 4 hour): -0.83 ms
- QTcF change from baseline, LS mean (QTc interval; single dose 200 mg, 4 hour): -0.40 ms
- QTcF LS mean difference from placebo (QTc interval; single dose 200 mg, 6 hour): -1.26 ms
- QTcF change from baseline, LS mean (QTc interval; single dose 200 mg, 6 hour): -6.89 ms
- QTcF LS mean difference from placebo (QTc interval; single dose 200 mg, 8 hour): -1.24 ms
- QTcF change from baseline, LS mean (QTc interval; single dose 200 mg, 8 hour): -9.59 ms
- QTcF LS mean difference from placebo (QTc interval; single dose 200 mg, 10 hour): -2.67 ms
- QTcF change from baseline, LS mean (QTc interval; single dose 200 mg, 10 hour): -8.82 ms
- QTcF LS mean difference from placebo (QTc interval; single dose 200 mg, 12 hour): -3.72 ms
- QTcF change from baseline, LS mean (QTc interval; single dose 200 mg, 12 hour): -6.82 ms
- QTcF LS mean difference from placebo (QTc interval; single dose 200 mg, 23.5 hour): 0.38 ms
- QTcF change from baseline, LS mean (QTc interval; single dose 200 mg, 23.5 hour): -2.15 ms
- Maximum mean placebo corrected change from baseline RR interval (QTc interval; single dose 400 mg): -162.45 ms
- Maximum mean placebo corrected change from baseline diastolic BP (QTc interval; single dose 400 mg): 3.99 mmHg
- Maximum mean placebo corrected change from baseline systolic BP (QTc interval; single dose 400 mg): 3.97 mmHg
- QTcF LS mean difference from placebo (QTc interval; single dose 400 mg, 0.5 hour): 3.37 ms
- QTcF change from baseline, LS mean (QTc interval; single dose 400 mg, 0.5 hour): 2.37 ms
- QTcF change from baseline, LS mean (QTc interval; single dose 400 mg, 1 hour): 4.49 ms
- QTcF LS mean difference from placebo (QTc interval; single dose 400 mg, 1 hour (maximum)): 4.60 (2.71, 6.48) msec and 4.60 msec
- QTcF LS mean difference from placebo (QTc interval; single dose 400 mg, 2 hour): 0.81 ms
- QTcF change from baseline, LS mean (QTc interval; single dose 400 mg, 2 hour): 0.73 ms
- QTcF LS mean difference from placebo (QTc interval; single dose 400 mg, 3 hour): -1.04 ms
- QTcF change from baseline, LS mean (QTc interval; single dose 400 mg, 3 hour): -0.30 ms
- QTcF LS mean difference from placebo (QTc interval; single dose 400 mg, 4 hour): -2.96 ms
- QTcF change from baseline, LS mean (QTc interval; single dose 400 mg, 4 hour): -2.53 ms
- QTcF LS mean difference from placebo (QTc interval; single dose 400 mg, 6 hour): -2.70 ms
- QTcF change from baseline, LS mean (QTc interval; single dose 400 mg, 6 hour): -8.33 ms
- QTcF LS mean difference from placebo (QTc interval; single dose 400 mg, 8 hour): -3.24 ms
- QTcF change from baseline, LS mean (QTc interval; single dose 400 mg, 8 hour): -11.60 ms
- QTcF LS mean difference from placebo (QTc interval; single dose 400 mg, 10 hour): -4.14 ms
- QTcF change from baseline, LS mean (QTc interval; single dose 400 mg, 10 hour): -10.29 ms
- QTcF LS mean difference from placebo (QTc interval; single dose 400 mg, 12 hour): -4.00 ms
- QTcF change from baseline, LS mean (QTc interval; single dose 400 mg, 12 hour): -7.10 ms
- QTcF LS mean difference from placebo (QTc interval; single dose 400 mg, 23.5 hour): -0.34 ms
- QTcF change from baseline, LS mean (QTc interval; single dose 400 mg, 23.5 hour): -2.87 ms
- effect on QTc or blood pressure (QTc interval; thorough QT study): no clinically meaningful effect on QTc or blood pressure
- β3-AR IC50 (β3-AR): 0.086 µg/mL
- long-term efficacy (patients with OAB [3]): reduced episodes of micturitions, UUI episodes, total incontinence episodes, and urgency episodes
